ChEMBL document CHEMBL5614440, “Development of Novel Indole-Based Covalent Inhibitors of TEAD as Potential Antiliver Cancer Agents” (J Med Chem, 2024)
Blank lines part the entries; values can stand above or below the molecule they belong to. Activity calls are given as the source filed them. No cut-off for these calls is given here.

Tests used:
[1] = system: Huh-7; test: Antiproliferative activity against human Huh-7 cells incubated for 3 days by CCK8 assay; format: functional, cell-based; conditions: Huh-7, 72 h
[2] = system: HEK293T; test: Inhibition of TEAD (unknown origin) expressed in HEK293T cells transfected with 8xGTIIC-luciferase at 10 uM by dual luciferase reporter assay relative to control; format: cell-based; conditions: Homo sapiens
[3] = (§1) Inhibition of TEAD transcription in human Huh-7 cells transfected with 8xGTIIC-luciferase by dual luciferase reporter assay; format: cell-based
[4] = system: Huh-7; test: Inhibition of TEAD transcription in human Huh-7 cells transfected with 8xGTIIC-luciferase assessed as downregulation of CTGF mRNA expression incubated for 24 hrs by RT-PCR analysis; format: cell-based; conditions: dose 1.25-10 µM
[5] = system: Huh-7; test: Inhibition of TEAD transcription in human Huh-7 cells transfected with 8xGTIIC-luciferase assessed as downregulation of CTGF protein expression by Western blotting analysis; format: cell-based; conditions: dose 1.25-15 µM
[6] = system: Mus musculus; test: Downregulation of CTGF mRNA expression in C57BL/6 mouse hepatoblastoma tumor at 25 mg/kg, ip administered twice a week for 9 weeks and measured after 2 days post last drug treatment by qRT-PCR analysis; format: functional, organism-based; conditions: time 65.0 day
[7] = system: HepG2; test: Inhibition of TEAD transcription in human HepG2 cells assessed as downregulation of CTGF mRNA expression incubated for 24 hrs by RT-PCR analysis; format: cell-based
[8] = system: Hs-578T; test: Antiproliferative activity against human Hs-578T cells incubated for 3 days by CCK8 assay; format: functional, cell-based; conditions: 72 h
[9] = system: Huh-7; test: Induction of apoptosis in human Huh-7 cells assessed as total apoptotic cells at 10 uM incubated for 48 hrs by Annexin V/PI staining based flow cytometry analysis; format: functional
[10] = system: Huh-7; test: Antitumor activity against human Huh-7 cells xenografted in NSG mouse assessed as tumor growth inhibition at 50 mg/kg, ip administered every 3 days for 24 days and measured every 3 days; format: functional; conditions: Huh-7, 576 h, time 24 day, read-out: TGI
[11] = system: Huh-7; test: Induction of apoptosis in human Huh-7 cells assessed as total apoptotic cells at 5 uM incubated for 48 hrs by Annexin V/PI staining based flow cytometry analysis; format: functional
[12] = system: NCI-H2452; test: Antiproliferative activity against human NCI-H2452 cells incubated for 3 days by CCK8 assay; format: functional, cell-based; conditions: NCI-H2452, 72 h
[13] = system: Mus musculus; test: Downregulation of Afp mRNA expression in C57BL/6 mouse hepatoblastoma tumor at 25 mg/kg, ip administered twice a week for 9 weeks and measured after 2 days post last drug treatment by qRT-PCR analysis; format: functional, organism-based; conditions: time 65.0 day
[14] = AUCinfinity in Sprague-Dawley rat at 50 mg/kg, ip measured upto 24 hrs by LC-MS/MS analysis; format: ADME, organism-based; conditions: in vivo
[15] = system: Mus musculus; test: Downregulation of Ccnd1 mRNA expression in C57BL/6 mouse hepatoblastoma tumor at 25 mg/kg, ip administered twice a week for 9 weeks and measured after 2 days post last drug treatment by qRT-PCR analysis; format: functional, organism-based; conditions: time 65.0 day
[16] = MRTinfinity in Sprague-Dawley rat at 50 mg/kg, ip measured upto 24 hrs by LC-MS/MS analysis; format: ADME, organism-based; conditions: in vivo
[17] = system: NCI-H226; test: Disruption of YAP to TEAD protein-protein interaction in human NCI-H226 cells at 2.5 uM incubated for 24 hrs by Coimmunoprecipitation method; format: cell-based
[18] = system: Huh-7; test: as §1; format: cell-based
[19] = system: Huh-7; test: Inhibition of TEAD transcription in human Huh-7 cells transfected with 8xGTIIC-luciferase assessed as downregulation of CYR61 mRNA expression incubated for 24 hrs by RT-PCR analysis; format: cell-based; conditions: dose 0.5-15 µM
[20] = system: Huh-7; test: Induction of cell cycle arrest in human Huh-7 cells assessed as decrease in S phase cells at 5 to 10 uM incubated for 48 hrs by propidium iodide staining based flow cytometry; format: functional; conditions: dose 5-10 µM
[21] = system: NCI-H226; test: Disruption of TAZ to TEAD protein-protein interaction in human NCI-H226 cells at 1 to 2.5 uM incubated for 24 hrs by Coimmunoprecipitation method; format: cell-based; conditions: dose 1-2.5 µM
[22] = system: Huh-7; test: Antitumor activity against human Huh-7 cells xenografted in NSG mouse assessed as tumor growth inhibition at 50 mg/kg, ip administered every 3 days for 24 days in presence of sorafenib and measured every 3 days; format: functional; conditions: Huh-7, 576 h, time 24 day, read-out: TGI
[23] = system: Huh-7; test: Induction of cell cycle arrest in human Huh-7 cells assessed as decrease in G2 phase cells at 5 to 10 uM incubated for 48 hrs by propidium iodide staining based flow cytometry; format: functional; conditions: dose 5-10 µM
[24] = system: Hepatoblastoma cell line; test: Antitumor activity against C57BL/6 mouse hepatoblastoma assessed as reduction in tumor size at 25 mg/kg, ip administered twice a week for 9 weeks and measured after 2 days post last drug treatment; format: functional, organism-based; conditions: time 65.0 day
[25] = Cmax in Sprague-Dawley rat at 50 mg/kg, ip measured upto 24 hrs by LC-MS/MS analysis; format: ADME, organism-based; conditions: in vivo
[26] = system: Hepatoblastoma cell line; test: Antitumor activity against C57BL/6 mouse hepatoblastoma assessed as reduction in number of proliferating cells at 25 mg/kg, ip administered twice a week for 9 weeks and measured after 2 days post last drug treatment by Ki67 staining based immunohistochemistry assay; format: functional, organism-based; conditions: time 65.0 day
[27] = system: NCI-H226; test: Antiproliferative activity against human NCI-H226 cells incubated for 3 days by CCK8 assay; format: functional, cell-based; conditions: NCI-H226, 72 h
[28] = system: HepG2; test: Inhibition of TEAD transcription in human HepG2 cells assessed as downregulation of CYR61 mRNA expression incubated for 24 hrs by RT-PCR analysis; format: cell-based; conditions: dose 0.5-15 µM
[29] = target: Transcriptional enhancer factor TEF-4 (Homo sapiens) (UniProt Q15562); test: Covalent binding affinity to human TEAD2-YBD (217 to 447 residues) assessed as change in protein mass at 50 uM incubated for 15 hrs by mass spectrometry analysis
[30] = system: Mus musculus; test: In vivo inhibition of TEAD transcription in NSG mouse xenografted with human Huh-7 cells assessed as decrease in CTGF expression at 50 mg/kg, ip administered every 3 days for 24 days by Western blotting analysis; format: functional, organism-based; conditions: time 24.0 day
[31] = Half life in Sprague-Dawley rat at 50 mg/kg, ip measured upto 24 hrs by LC-MS/MS analysis; format: ADME, organism-based; conditions: in vivo
[32] = system: Mus musculus; test: Downregulation of CTGF protein expression in C57BL/6 mouse hepatoblastoma tumor at 25 mg/kg, ip administered twice a week for 9 weeks and measured after 2 days post last drug treatment by Western blotting analysis; format: functional, organism-based; conditions: time 65.0 day
[33] = system: Mus musculus; test: Downregulation of Cyr61 protein expression in C57BL/6 mouse hepatoblastoma tumor at 25 mg/kg, ip administered twice a week for 9 weeks and measured after 2 days post last drug treatment by Western blotting analysis; format: functional, organism-based; conditions: time 65.0 day
[34] = system: Mus musculus; test: In vivo inhibition of TEAD transcription in NSG mouse xenografted with human Huh-7 cells assessed as decrease in CYR61 expression at 50 mg/kg, ip administered every 3 days for 24 days by Western blotting analysis; format: functional, organism-based; conditions: time 24.0 day
[35] = system: Mus musculus; test: Downregulation of Gpc3 mRNA expression in C57BL/6 mouse hepatoblastoma tumor at 25 mg/kg, ip administered twice a week for 9 weeks and measured after 2 days post last drug treatment by qRT-PCR analysis; format: functional, organism-based; conditions: time 65.0 day
[36] = AUClast in Sprague-Dawley rat at 50 mg/kg, ip measured upto 24 hrs by LC-MS/MS analysis; format: ADME, organism-based; conditions: in vivo
[37] = Tmax in Sprague-Dawley rat at 50 mg/kg, ip measured upto 24 hrs by LC-MS/MS analysis; format: ADME, organism-based; conditions: in vivo
[38] = Toxicity in NSG mouse assessed as change in body weight at 50 mg/kg, ip administered every 3 days for 24 days in presence of sorafenib and measured every 3 days; format: organism-based; conditions: in vivo, 576 h, time 24 day
[39] = system: Hepatoblastoma cell line; test: Antitumor activity against C57BL/6 mouse hepatoblastoma assessed as reduction in tumor occurrence at 25 mg/kg, ip administered twice a week for 9 weeks and measured after 2 days post last drug treatment; format: functional, organism-based; conditions: time 65.0 day
[40] = system: HepG2; test: Induction of apoptosis in human HepG2 cells assessed as total apoptotic cells at 10 uM incubated for 48 hrs by Annexin V/PI staining based flow cytometry analysis; format: functional
[41] = system: Mus musculus; test: Downregulation of Cyr61 mRNA expression in C57BL/6 mouse hepatoblastoma tumor at 25 mg/kg, ip administered twice a week for 9 weeks and measured after 2 days post last drug treatment by qRT-PCR analysis; format: functional, organism-based; conditions: time 65.0 day
[42] = system: Huh-7; test: Induction of cell cycle arrest in human Huh-7 cells assessed as increase in G1 phase cells at 5 to 10 uM incubated for 48 hrs by propidium iodide staining based flow cytometry (reference value: 36.4%); format: functional; conditions: dose 5-10 µM
[43] = organism: Homo sapiens; test: Covalent binding affinity to human TEAD2-YBD C380S mutant variant assessed as change in protein mass at 50 uM incubated for 15 hrs by mass spectrometry analysis
[44] = system: HepG2; test: Antiproliferative activity against human HepG2 cells incubated for 3 days by CCK8 assay; format: functional, cell-based; conditions: HepG2, 72 h
[45] = system: NCI-H226; test: Disruption of YAP to TEAD protein-protein interaction in human NCI-H226 cells at 1 uM incubated for 24 hrs by Coimmunoprecipitation method; format: cell-based
[46] = system: HepG2; test: Induction of cell cycle arrest in human HepG2 cells assessed as accumulation of G1 phase cells at 5 to 10 uM incubated for 48 hrs by propidium iodide staining based flow cytometry; format: functional; conditions: dose 5-10 µM

Transcriptional enhancer factor TEF-4 (Homo sapiens), sequence (Q15562 whole entry, the tested form may be a part): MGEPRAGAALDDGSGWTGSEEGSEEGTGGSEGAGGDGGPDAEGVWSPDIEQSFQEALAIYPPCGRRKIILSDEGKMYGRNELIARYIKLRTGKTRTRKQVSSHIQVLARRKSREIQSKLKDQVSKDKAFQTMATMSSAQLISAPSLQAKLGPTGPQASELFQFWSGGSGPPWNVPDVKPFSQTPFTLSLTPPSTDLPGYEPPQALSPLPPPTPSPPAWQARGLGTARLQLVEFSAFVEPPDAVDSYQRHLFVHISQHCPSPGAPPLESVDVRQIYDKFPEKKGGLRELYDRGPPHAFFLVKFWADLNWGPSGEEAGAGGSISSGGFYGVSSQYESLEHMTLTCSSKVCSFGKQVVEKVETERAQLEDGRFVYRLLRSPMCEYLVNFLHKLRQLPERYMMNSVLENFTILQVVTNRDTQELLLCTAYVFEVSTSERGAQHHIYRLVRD

Compound: C=CC(=O)NCc1c[nH]c2cc(Cl)c(OCc3cccc4ccccc34)cc12
IC50 [1]: 14400 nM | inhibition [2]: 10.6%

Compound: O=C(CCl)NCc1c[nH]c2cc(Cl)c(OCc3ccc4ccccc4c3)cc12
IC50 [1]: 5700 nM | inhibition [2]: 67.4%

Compound: N#C/C(=C\c1c[nH]c2cc(Cl)c(OCc3ccccc3)cc12)C(N)=O
IC50 [1]: > 50000 nM

Compound: COc1cc2[nH]cc(C(=O)CCl)c2cc1OCc1ccccc1
IC50 [1]: 3800 nM | inhibition [2]: 53.7%

Compound: O=C(CCl)c1c[nH]c2cc(Cl)c(OCc3ccc4ccccc4c3)cc12
IC50 [1]: 2300 nM | IC50 [3]: 870 nM | inhibition [4]: Dose-Dependent Effect | inhibition [5]: Dose-Dependent Effect | inhibition [2]: 95.6%

Compound: N#C/C(=C\c1c[nH]c2cc(Cl)c(OCc3cccc(C(F)(F)F)c3)cc12)C(N)=O
IC50 [1]: 5200 nM | inhibition [2]: 59.7%

Compound: O=C(CCl)c1c[nH]c2ccc(OCc3ccccc3)cc12
IC50 [1]: 10500 nM | inhibition [2]: 20.5%

Compound: COc1cc2[nH]cc(C(=O)CCl)c2cc1OCc1cccc2ccccc12
IC50 [1]: 2500 nM | inhibition [2]: 64.5%

Stronger by IC50 [1], values ahead:

IC50 [1]: 2000 nM
Compound: C=C(CN(C)C)C(=O)NCc1c[nH]c2cc(Cl)c(OCc3ccccc3)cc12
inhibition [2]: 71.8%

IC50 [1]: 1600 nM
Compound: O=C(CCl)c1c[nH]c2cc(Cl)c(OCc3cccc4ccccc34)cc12
inhibition [2]: 69.4%

IC50 [1]: 1200 nM
Compound: O=C(CCl)NCc1c[nH]c2cc(Cl)c(OCc3ccccc3)cc12
inhibition [18]: Dose-Dependent Effect | inhibition [5]: Dose-Dependent Effect | inhibition [2]: 97.8%

IC50 [1]: 900 nM | IC50 [12]: 11000 nM | AUC(0-inf) [14]: 208 ng·h/mL | MRT inf [16]: 9.65 h | IC50 [3]: 629 nM | Cmax [25]: 28 ng/mL | IC50 [27]: 400 nM | Activity [29]: Active | half-life [31]: 6.49 h | AUC(0-t) at 24 h [36]: 175 ng·h/mL | Tmax [37]: 2.67 h | Activity [43]: inactive | IC50 [44]: 2400 nM
Compound: O=C(CCl)c1c[nH]c2cc(Cl)c(OCc3cccc(C(F)(F)F)c3)cc12
Activity [6]: Active | inhibition [7]: Dose-Dependent Effect | IC50 [8]: 2600 nM | Activity [9]: 83.5% | inhibition in vivo at 50 mg/kg [10]: 75% | Activity [11]: 66.8% | Activity [13]: Active | Activity [15]: Active | Activity [17]: 100% | inhibition [18]: Dose-Dependent Effect | inhibition [19]: Dose-Dependent Effect | Activity [20]: Active | Activity [21]: inactive | inhibition in vivo at 50 mg/kg [22]: 93% | inhibition [5]: Dose-Dependent Effect | Activity [23]: Active | Activity [24]: Active | Activity [26]: Active | inhibition [28]: Dose-Dependent Effect | inhibition [30]: Active | Activity [32]: Active | Activity [33]: Active | inhibition [34]: Active | Activity [35]: Active | Activity [38]: Non-Toxic | inhibition [2]: 93.6% | Activity [39]: Active | Activity [40]: 69% | Activity [41]: Active | Activity [42]: 58.2% | Activity [45]: Active | Activity [46]: Active

IC50 [1]: 800 nM
Compound: O=C(CCl)NCc1c[nH]c2cc(Cl)c(OCc3cccc4ccccc34)cc12
inhibition [2]: 81.5%
